Reference: US20040038933A1, “Pharmaceutical compositions, dose and method for treating malaria” (priority 2000, published 2004)

Columns and labels:
P. falcipanini = assay: Recovery from fever in patients with severe malaria, combined administration of CRDS and artesunate; assay type: in vivo; conditions: CRDS 4 mg/kg i.v. infusion every 8 hours for 4 days, artesunate i.v. 120 mg then 60 mg every 12 hours up to 600 mg, 22 patients per group, FIG. 1
Procedure: Sodium curdlan sulfate (hereinafter referred to as “CRDS”; molecular weight 80,000; sulfur content 14.5%) was used as a sulfated polysaccharide and artesunate (dihydroartemisinin hemisuccinate, see formula I, J. Med. Chem., 30, 2147 (1987)) was used as an artemisinin compound.
(§1) CRDS was used as a solution containing 100 mg of CRDS, 50 mg of mannitol, 18 mg of dibasic sodium phosphate and phosphate buffer (pH 6.5) per vial.
(§2) CRDS was intravenously administered (infusion) at 4 mg/kg every 8 hours in a total daily dose of 12 mg/kg for 4 days.
(§3) Physiological saline was used as a placebo and administered according to the same schedule as for CRDS.
Artesunate (60 mg/vial) was intravenously administered to both CRDS and placebo groups at a dose of initially 120 mg, and then 60 mg every 12 hours up to a total dose of 600 mg (according to the current standard therapy in the Bangkok Hospital for Tropical Diseases). If possible, tablets containing 50 mg of artesunate were orally administered.
Fifty patients were randomly divided into a CRDS group and a placebo group. The patients were males and females at the ages of 12-65 in whom P. falcipanini was found. The patients had symptoms of severe malaria (with hypoglycemia corrected) and excluded those having symptoms of cerebral malaria. […]
The time required for each patient to recover from fever after starting the treatment was recorded. […]

[1] = test system: asexual malarial parasites; assay: Recovery from coma in patients with severe/cerebral malaria, combined administration of CRDS and artesunate; assay type: in vivo; conditions: male patients in a coma, Glasgow Coma Score, CRDS 4 mg/kg i.v. infusion every 8 hours for 4 days, artesunate i.v. up to 600 mg, 13 patients per group, FIG. 2
Procedure: CRDS (molecular weight 80,000; sulfur content 14.5%) was used as a sulfated polysaccharide and artesunate was used as an artemisinin compound.
as §1, §2, §3
Artesunate (60 mg/vial) was intravenously administered to both CRDS and placebo groups at a dose of initially 120 mg, and then 60 mg every 12 hours up to a total dose of 600 mg. If possible, tablets containing 50 mg of artesunate were orally administered.
Coma was determined by Glasgow Coma Score.
For each of the CRDS group and the placebo group, 13 patients completed this protocol. The time required for each patient to recover from coma was recorded. Fisher's exact test was used to compare the number of patients who recovered from coma within 120 hours between both groups (CRDS group and placebo group).

## C[C@H]1[C@H](OC(=O)CCC(=O)O)O[C@@H]2O[C@@]3(C)CC[C@H]4[C@H](C)CC[C@@H]1[C@@]24OO3 [artesunate, dihydroartemisinin hemisuccinate]
P. falcipanini
  time required for all the patients to recover from fever: 9 days
[1]
  time required for all the patients to recover from coma: 9 days
